Results from PMC9445081, “Structural basis for recognition of N-formyl peptides as pathogen-associated molecular patterns” (Nature Communications, 2022).
Positions count from the first letter of the chain named.

Legend:
Type in all cases: cell-based
FPR1 R205A = target: T1, FPR1 R205A (Homo sapiens, UniProt P21462, R205A); test: cAMP inhibition assay, FPR1 R205A
T1 construct: expressed in transfected cells; host or cells: HeLa cells, transient, pcDNA3.1(+)
T1 sequence (P21462 1-350 R205A): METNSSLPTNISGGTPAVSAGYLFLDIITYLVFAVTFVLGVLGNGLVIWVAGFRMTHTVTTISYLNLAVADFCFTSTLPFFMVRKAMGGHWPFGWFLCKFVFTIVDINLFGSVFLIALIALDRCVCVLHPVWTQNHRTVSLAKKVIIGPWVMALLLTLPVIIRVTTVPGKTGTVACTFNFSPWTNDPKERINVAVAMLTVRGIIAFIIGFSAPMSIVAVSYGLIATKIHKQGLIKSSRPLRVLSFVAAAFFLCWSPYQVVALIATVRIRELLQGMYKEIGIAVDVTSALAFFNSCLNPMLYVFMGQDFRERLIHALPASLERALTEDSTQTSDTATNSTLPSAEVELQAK
Description: (§1) FPR1 cDNA in the pcDNA3.1(+) vector (Invitrogen) was used as a template for gene manipulation. The mutations of FPR1 were introduced in the receptor through overlap extension PCR with elaborately designed primers (GENEWIZ, Suzhou, China). The sequences of the primers were listed in Supplementary Table 2. Two fragments of FPR1 (separated at mutated positions) were assembled into pre-cut pcDNA3.1(+) vectors with the ClonExpress Ultra One Step Cloning Kit (Vazyme Biotech, C115). Plasmids with FPR1 mutations were confirmed by DNA sequencing (GENEWIZ).
(§2) For functional studies, FPR1 and its mutants were expressed in HeLa cells as above. The cells were resuspended in HBSS buffer plus 5 mM HEPES, 0.1% BSA (w/v) and 0.5 mM 3-isobutyl-1-methylxanthine and seeded into 384-well plates. […] AG-14 was synthesized by Sungening Biotechnology (Shenzhen, China). Different concentrations of the ligands were prepared plus a fixed dose of forskolin with the buffer above. […] Intracellular cAMP levels were measured with the LANCE Ultra cAMP kit (PerkinElmer, TRF0263) following the manufacturer’s instructions. […] Intracellular cAMP levels were calculated according to the TR-FRET signals of the samples and cAMP standards.
(§3) The data were analyzed with Prism 6.0 (GraphPad, San Diego, CA). For dose-response analysis, the curves were plotted with the log[agonist] vs. response equation (three parameters) in the software. Data points were presented as the percentages (mean ± SEM) of the maximal cAMP level for each construct, from at least three independent experiments, as indicated in figure legends. The pEC50 values were the negative logarithm of the EC50 values, which were obtained from the dose-response curves. For cell surface expression, data points were presented as the percentages (mean ± SEM) of the flow cytometry fluorescence signals of WT FPR1. For statistical comparison, a p-value of 0.05 or lower is considered statistically significant.

FPR1 R201A = target: T2, FPR1 R201A (Homo sapiens, UniProt P21462, R201A); test: cAMP inhibition assay, FPR1 R201A
T2 construct: expressed in transfected cells; host or cells: HeLa cells, transient, pcDNA3.1(+)
T2 sequence (P21462 1-350 R201A): T1 sequence (P21462 1-350 R205A) with R201A, A205R
Description: as §1
as §2, with “China).” for “China). Different concentrations of the ligands were prepared plus a fixed dose of forskolin with the buffer above.”
(§4) The data were analyzed with Prism 6.0 (GraphPad, San Diego, CA). […] For cell surface expression, data points were presented as the percentages (mean ± SEM) of the flow cytometry fluorescence signals of WT FPR1. […]

FPR1 W254A = target: T3, FPR1 W254A (Homo sapiens, UniProt P21462, W254A); test: cAMP inhibition assay, FPR1 W254A; conditions: inhibiting forskolin-elevated cAMP, HeLa cells, read-out: pEC50, mean ± SEM (converted)
T3 construct: expressed in transfected cells; host or cells: HeLa cells, transient, pcDNA3.1(+)
T3 sequence (P21462 1-350 W254A): T1 sequence (P21462 1-350 R205A) with A205R, W254A
Description: as §1
as §2, with “China).” for “China). Different concentrations of the ligands were prepared plus a fixed dose of forskolin with the buffer above.”
as §4

FPR1 F291A = target: T4, FPR1 F291A (Homo sapiens, UniProt P21462, F291A); test: cAMP inhibition assay, FPR1 F291A
T4 construct: expressed in transfected cells; host or cells: HeLa cells, transient, pcDNA3.1(+)
T4 sequence (P21462 1-350 F291A): T1 sequence (P21462 1-350 R205A) with A205R, F291A
Description: as §1, §2, §3

FPR1 Y257A = target: T5, FPR1 Y257A (Homo sapiens, UniProt P21462, Y257A); test: cAMP inhibition assay, FPR1 Y257A; conditions: inhibiting forskolin-elevated cAMP, HeLa cells, read-out: pEC50, mean ± SEM (converted)
T5 construct: expressed in transfected cells; host or cells: HeLa cells, transient, pcDNA3.1(+)
T5 sequence (P21462 1-350 Y257A): T1 sequence (P21462 1-350 R205A) with A205R, Y257A
Description: as §1
as §2, with “China).” for “China). Different concentrations of the ligands were prepared plus a fixed dose of forskolin with the buffer above.”
as §4

FPR1 R84A = target: T6, FPR1 R84A (Homo sapiens, UniProt P21462, R84A); test: cAMP inhibition assay, FPR1 R84A; conditions: inhibiting forskolin-elevated cAMP, HeLa cells, read-out: pEC50, mean ± SEM (converted)
T6 construct: expressed in transfected cells; host or cells: HeLa cells, transient, pcDNA3.1(+)
T6 sequence (P21462 1-350 R84A): T1 sequence (P21462 1-350 R205A) with R84A, A205R
Description: as §1, §2, §3

FPR1 WT = target: T7, FPR1 WT (Homo sapiens, UniProt P21462); test: cAMP inhibition assay, WT FPR1
T7 construct: expressed in transfected cells; host or cells: HeLa cells, transient, pcDNA3.1(+)
T7 sequence (P21462 1-350): T1 sequence (P21462 1-350 R205A) with A205R
Description: as §1
as §2, with “China).” for “China). Different concentrations of the ligands were prepared plus a fixed dose of forskolin with the buffer above.”
as §4

EC50 (FPR1 R205A): 1000 nM | EC50 (FPR1 R201A): 1580 nM | EC50 (FPR1 W254A): 5010 nM | EC50 (FPR1 F291A): 2000 nM | EC50 (FPR1 Y257A): 2510 nM | EC50 (FPR1 R84A): 1260 nM | EC50 (FPR1 WT): 398 nM
Compound: COc1cc(/C=N/NC(=O)c2ccc3c(c2)OCO3)ccc1OCc1ccccc1 [AG-14]
